Measurements: patent publication US20220112204A1, “SUBSTITUTED DIHYDROPYRANOPYRIMIDINE COMPOUNDS AS KRAS INHIBITORS” (ACCUTAR BIOTECHNOLOGY INC., priority 2020, published 2022)
Read-outs that look alike come from different tables or passages of the source.

Experiments:
[1] = target: T1, KRAS-G12C mutant (Homo sapiens, UniProt P01116, G12C); assay: Gel shift assay (SDS-PAGE) for covalent modification of KRAS G12C; type: binding; conditions: 0.5 μM compound, 1 μM GDP-bound KRAS G12C, 25° C., 5 minutes, shift indicative of covalent cysteine conjugation
Method: 0.5 μM compounds were incubated with 1 μM GDP-bound untagged KRAS (G12C or wild type) proteins at 25° C. for 5 minutes in 40 μl reaction buffer (50 mM Tris, pH 7.5, 100 mM NaCl, 1 mM MgCl2, 1 mM DTT). The reactions were quenched with 10 μI SDS-PAGE sample loading buffer (250 mM Tris-HCl, pH 6.8, 10% SDS, 0.5% bromophenol blue, 50% glycerol and 50 mM DTT) and then analyzed via SDS-PAGE using 4%-20% gradient polyacrylamide gel followed by Coomassie blue stain.
FIG. 1 illustrates mobility change of KRAS-G12C mutant or wild type proteins on SDS-PAGE after 5 minutes of coincubation at 25° C. with exemplary compounds of the present disclosure, indicative of covalent cysteine conjugation.
Table 3 summarizes molecular weight shift of KRAS-G12C mutant on SDS-PAGE after 5 mins of coincubation at 25° C. with exemplary compounds of the present disclosure, indicative of covalent cysteine conjugation.

[2] = target: T1, KRAS-G12C mutant; assay: TR-FRET assay of SOS1-assisted KRAS GDP/GTP exchange; type: biochemical
Method: GDP form of 6*His tagged KRAS-G12C was diluted to 40 nM and incubated with 8 nM LanthaScreen™ Elite Terbium-anti-HIS Antibody (Thermo, catalog number PV5863) in reaction buffer containing 20 mM Tris, pH 7.5, 100 mM NaCl, 1 mM DTT, 0.1% Tween20, 0.05% BSA, 2% DMSO, 1 mM MgCl2. After 1 hour-incubation at 4° C., proteins were placed in 384 well plate (PerkinElmer, PROXIPLATE-384 PLUS). Then compounds with different concentrations were added to the proteins. BODIPY labeled GTP (Thermo, catalog number G12411) and SOS-1 (or reaction buffer as control) were then added to reactions at 200 nM and 1 μM to trigger the exchange of GDP to BODIPY-GTP. TR-FRET emission signals were determined at 520 nm and 620 nm on a Envision® Multilabel Plate Reader (PerkinElmer) using a 337 nm laser as light source. All data were analyzed and plotted using Graph Pad Prism software (version 8.0.1). Raw TR-FRET data were converted to percentage of inhibition (relative to DMSO) using the following equations: […]
b) For a given test compound concentration X:
Signal (X)=Emission ratio (SOS-1 & GTP)—Emission ratio (buffer & GTP)
c) Percentage of inhibition at concentration X=[1−Signal(X)/Signal (DMSO)]*100%
The […] values were determined by nonlinear regression of plots of [inhibitor] vs. percentage of inhibition with variable slope. Table 4 summarizes inhibition of SOS1-assisted GDP/GTP exchanging activity of KRAS-G12C mutant with exemplary compounds of the present disclosure.

[3] = test system: phospho-ERK1/2 (Thr202/Tyr204) in MIA PaCa-2 cell line; assay: pERK and ERK Western blot analysis, MIA PaCa-2; type: cell-based; conditions: Homo sapiens
Method: (§1) MIA PaCa-2 (ATCC), NCI-H358 (ATCC), NCI-H23 (ATCC), SW837 and A549 (ATCC) cells were plated in 24-well plates at 2×10^5cells/well in RPMI growth medium containing 10% FBS and 1× Penicillin Streptomycin. They were then incubated at 37° C. overnight. The following day, the test compound was administered to the cells by using 1000× compound stock solution prepared in DMSO at various concentrations. After administration of the compound, the cells were then incubated at 37° C. for 4 hours. Upon completion, the cells were washed with PBS and protein was collected in Laemmli sample buffer (1×; VWR International). Proteins in cell lysate were separated by SDS-PAGE and transferred to Odyssey nitrocellulose membranes (Licor) with iblot® dry blotting transfer system (ThermoFisher). Nonspecific binding was blocked by incubating membranes with Intercept Blocking Buffer (Licor) for 1 hour at room temperature with gentle shaking. The membranes were then incubated overnight at 4° C. with primary antibodies rabbit anti-phospho p44/42 MAPK (Erk1/2) (1:2,000, Cell Signaling, 4370) and mouse anti-p44/42 MAPK (Erk1/2) (1:1,000, Cell Signaling, 4696) diluted in Intercept Blocking Buffer containing 0.1% Tween 20. After washing 3 times with TBS-T, the membranes were incubated with IRDye® 800CW goat anti-rabbit IgG (1:20,000, Licor) or IRDye® 680CW goat anti-mouse IgG (1:20,000, Licor) for 1 hour. After TBS-T washes, membranes were rinsed in TBS and scanned on Odyssey® CLx Imaging System (Licor). The bands were quantified using Image Studio™ Software (Licor).

[4] = test system: phospho-ERK1/2 (Thr202/Tyr204) in NCI-H23 cells; assay: pERK and ERK Western blot analysis, NCI-H23; type: cell-based; conditions: Homo sapiens; NCI-H23, KRAS G12C, 4 hours
Method: as §1, with “After washing 3 times with TBS-T, the membranes were incubated with IRDye® 800CW goat anti-rabbit IgG (1:20,000, Licor) or IRDye® 680CW goat anti-mouse IgG (1:20,000, Licor) for 1 hour. After TBS-T washes, membranes were rinsed in TBS and scanned on Odyssey® CLx Imaging System (Licor).” left out

[5] = test system: phospho-ERK1/2 (Thr202/Tyr204) in NCI-H358 cells; assay: pERK and ERK Western blot analysis, NCI-H358; type: cell-based; conditions: Homo sapiens; NCI-H358, KRAS G12C, 4 hours
Method: as §1, with “After washing 3 times with TBS-T, the membranes were incubated with IRDye® 800CW goat anti-rabbit IgG (1:20,000, Licor) or IRDye® 680CW goat anti-mouse IgG (1:20,000, Licor) for 1 hour. After TBS-T washes, membranes were rinsed in TBS and scanned on Odyssey® CLx Imaging System (Licor).” left out

[6] = test system: phospho-ERK1/2 (Thr202/Tyr204) in SW837 cells; assay: pERK and ERK Western blot analysis, SW837; type: cell-based; conditions: Homo sapiens; SW837, KRAS G12C, 4 hours
Method: as §1, with “After washing 3 times with TBS-T, the membranes were incubated with IRDye® 800CW goat anti-rabbit IgG (1:20,000, Licor) or IRDye® 680CW goat anti-mouse IgG (1:20,000, Licor) for 1 hour. After TBS-T washes, membranes were rinsed in TBS and scanned on Odyssey® CLx Imaging System (Licor).” left out

[7] = test system: phospho-ERK1/2 (Thr202/Tyr204) in A549 cells; assay: pERK and ERK Western blot analysis, A549; type: cell-based; conditions: Homo sapiens; A549, KRAS G12S, 4 hours
Method: as §1, with “After washing 3 times with TBS-T, the membranes were incubated with IRDye® 800CW goat anti-rabbit IgG (1:20,000, Licor) or IRDye® 680CW goat anti-mouse IgG (1:20,000, Licor) for 1 hour. After TBS-T washes, membranes were rinsed in TBS and scanned on Odyssey® CLx Imaging System (Licor).” left out

[8] = test system: MIA PaCa-2 cell line; assay: 3D cell growth assay (CellTiter-Glo), MIA PaCa-2; type: cell-based; conditions: Homo sapiens, MIA PaCa-2, 144 h, 6 days, read-out: 3D growth inhibition GI50
Method: (§2) MIA PaCa-2 (ATCC), NCI-H358 (ATCC), NCI-H23 (ATCC), SW837 and A549 (ATCC) cells were plated in round bottom 96-well spheroid microplates (Corning, 4520) at 3000 cells/well in 90 ul of RPMI growth medium containing 10% FBS and 1% Penicillin Streptomycin. Cells were incubated at 37° C. overnight. The following day, the test compound was administered to the cells by using 10× compound stock solution prepared in growth medium at various concentrations. After administration of the compound, cells were then incubated at 37° C. for 6 days. Before CellTiter-Glo assay, the plates were equilibrated at room temperature for approximately 10 minutes. 100 ul of CellTiter-Glo® Reagent (Promega, G7573) was added to each well. The plates were then incubated at room temperature for 10 minutes and luminescence was recorded by EnSpire plate reader (PerkinElmer). Table 6 illustrates growth inhibition (G150) by exemplary compounds 1-10 of the present disclosure in a MIA PaCa-2 cell line 6 days after administration in 3D cell culture. A: >0.1 nM and <1 nM; B: >=1 nM and <10 nM; C: >=10 nM and <100 nM; D: >100 nM.

[9] = test system: NCI-H23 cells; assay: 3D cell growth assay (CellTiter-Glo), NCI-H23; type: cell-based; conditions: Homo sapiens, 144 h, NCI-H23, KRAS G12C, 6 days, read-out: 3D growth inhibition GI50
Method: as §2

[10] = test system: NCI-H358 cells; assay: 3D cell growth assay (CellTiter-Glo), NCI-H358; type: cell-based; conditions: Homo sapiens, 144 h, NCI-H358, KRAS G12C, 6 days, read-out: 3D growth inhibition GI50
Method: as §2

[11] = test system: SW837 cells; assay: 3D cell growth assay (CellTiter-Glo), SW837; type: cell-based; conditions: Homo sapiens, 144 h, SW837, KRAS G12C, 6 days, read-out: 3D growth inhibition GI50
Method: as §2

[12] = test system: A549 cells; assay: 3D cell growth assay (CellTiter-Glo), A549; type: cell-based; conditions: Homo sapiens, 144 h, A549, KRAS G12S, 6 days, read-out: 3D growth inhibition GI50
Method: as §2

[13] = MIA PaCa-2, MiaPaCa2, KRAS G12C, 4 hours, read-out: pERK IC50
[14] = MIA PaCa-2 cell line, 4 hours after incubation, read-out: 2D pERK IC50
[15] = MIA PaCa-2 cell line, 3D cell culture

SMILES | KRAS-G12C molecular weight shift [1] | IC50 [2] [nM] | IC50 [3, 13] [nM] | IC50 [3, 14] [nM] | IC50 [4] [nM] | IC50 [5] [nM] | IC50 [6] [nM] | IC50 [7] [nM] | GI50 [8, 15] [nM] | GI50 ([8]; MiaPaCa2, KRAS G12C, 3D) [nM] | GI50 [9] [nM] | GI50 [10] [nM] | GI50 [11] [nM] | GI50 [12] [nM]
C=C(F)C(=O)N1CCN(c2nc(OCC34CCCN3CCC4)nc3c2CO[C@H](c2cccc4cccc(Cl)c24)C3)C[C@@H]1CC#N (single isomer, unassigned) [Compound 55] | Yes | 22 | 10.1 | 1 to 10 | 6.4 | 12 | 5.9 | > 30000 | 0.1 to 1 | 0.8 | 8.4 | 0.7 | 8.6 | > 300
C=C(F)C(=O)N1CCN(c2nc(OCC34CCCN3CCC4)nc3c2[C@H](C)O[C@H](c2cccc4c2CCCC4)C3)C[C@@H]1CC#N [Compound 61, 2-((S)-1-(2-fluoroacryloyl)-4-((5S,7S)-5-methyl-2-((tetrahydro-1H-pyrrolizin-7a(5H)-yl)methoxy)-7-(5,6,7,8-tetrahydronaphthalen-1-yl)-7,8-dihydro-5H-pyrano[4,3-d]pyrimidin-4-yl)piperazin-2-yl)acetonitrile] | Yes | 78 |  | 10 to 100 |  |  |  |  | 10 to 100 |  |  |  |  | 
C=C(F)C(=O)N1CCN(c2nc(OCC34CCCN3CCC4)nc3c2[C@H](C)O[C@H](c2cccc4cccc(C)c24)C3)C[C@@H]1CC#N [Compound 66, 2-((S)-1-(2-fluoroacryloyl)-4-((5S,7S)-5-methyl-7-(8-methylnaphthalen-1-yl)-2-((tetrahydro-1H-pyrrolizin-7a(5H)-yl)methoxy)-7,8-dihydro-5H-pyrano[4,3-d]pyrimidin-4-yl)piperazin-2-yl)acetonitrile] | Yes | 30 |  | 10 to 100 |  |  |  |  | 1 to 10 |  |  |  |  | 
C=C(F)C(=O)N1CCN(c2nc(OCC3(CN4CCCC4)CC3)nc3c2COC(c2cccc4cccc(Cl)c24)C3)C[C@@H]1CC#N (mixture of isomers) [Compound 71, 2-((2S)-4-(7-(8-chloronaphthalen-1-yl)-2-((1-(pyrrolidin-1-ylmethyl)cyclopropyl)methoxy)-7,8-dihydro-5H-pyrano[4,3-d]pyrimidin-4-yl)-1-(2-fluoroacryloyl)piperazin-2-yl)acetonitrile] | Yes | 209 |  | 10 to 100 |  |  |  |  | 10 to 100 |  |  |  |  | 
C=C(F)C(=O)N1CCN(c2nc(OC[C@@]34CCCN3C[C@H](F)C4)nc3c2CO[C@H](c2cccc4cccc(Cl)c24)C3)C[C@@H]1CC#N [Compound 64, 2-((S)-4-((S)-7-(8-chloronaphthalen-1-yl)-2-(((2R,7aS)-2-fluorotetrahydro-1H-pyrrolizin-7a(5H)-yl)methoxy)-7,8-dihydro-5H-pyrano[4,3-d]pyrimidin-4-yl)-1-(2-fluoroacryloyl)piperazin-2-yl)acetonitrile] | Yes | 20 | 2.4 | 1 to 10 | 1.7 | 2.5 | 1.2 | > 30000 | 0.1 to 1 | 0.3 | 2.1 | 0.2 | 4.1 | > 300
C=C(F)C(=O)N1CCN(c2nc(OCC34CCCN3CCC4)nc3c2COC(c2cccc4cccc(C)c24)C3)C[C@@H]1CC#N (stereo partly drawn) [Compound 56, 2-((2S)-1-(2-fluoroacryloyl)-4-(7-(8-methylnaphthalen-1-yl)-2-((tetrahydro-1H-pyrrolizin-7a(5H)-yl)methoxy)-7,8-dihydro-5H-pyrano[4,3-d]pyrimidin-4-yl)piperazin-2-yl)acetonitrile] | Yes | 70 |  | 10 to 100 |  |  |  |  | 1 to 10 |  |  |  |  | 
C=C(F)C(=O)N1CCN(c2nc(OCC34CCCN3CCC4)nc3c2CO[C@H](c2cccc4cccc(C)c24)C3)C[C@@H]1CC#N (single isomer, unassigned) [Compound 58] | Yes | 19 |  | 10 to 100 |  |  |  |  | 1 to 10 |  |  |  |  | 
C=C(F)C(=O)N1CCN(c2nc(OCC3(CN4CCCC4)CC3)nc3c2CO[C@H](c2cccc4cccc(Cl)c24)C3)C[C@@H]1CC#N (single isomer, unassigned) [Compound 73] | Yes | 112 |  | 10 to 100 |  |  |  |  | 10 to 100 |  |  |  |  | 
